Reference: patent publication US20150224157A1, “PROCESS FOR THE PREPARATION OF HERBAL EXTRACT OF CASSIA TORA LEAVES FOR TREATING ANXIETY DISORDERS” (priority 2009, published 2015)

Experiments:
[1] = cited from earlier work
Swiss Albino male mice = assay: Elevated plus maze test in mice; assay type: in vivo; details: Diazepam 1.5 mg/kg p.o.
Method: 1. Animals: Swiss Albino male mice 20-25 gm body weights were procured from Laboratory Animal Services Division of Central Drug Research Institute, Lucknow. All animals were kept in polyacrylic cage in environmentally controlled rooms (temperature 24-27° C. and humidity 60-65% with 12:12 light:dark cycle). Food was provided in the form of dry pellets and water ad libitum. Each animal was used only once in the behavioral tests and were habituated with the experimental room one day prior to the experiment All experiments involving animals complies with the ethical standards of animal handling and approved by Institutional Animal Ethics Committee.
Treatment of animals: Diazepam was diluted in distilled water, administered by […]. The extract was dissolved in 0.5% gum acacia suspension and administered by oral route.
Elevated plus maze test in mice: This test was used to evaluate the anti-anxiety activity. The test is based on the principal of conflict between exploration and fear of open/or closed arms. Apparatus consists of a raised stainless steel maze of four arms arranged in ‘+’ sign. Two of opposite arms are enclosed by raised walls whereas other arms are kept open. All the four arms consist of infrared beams at regular distance. The movement of animal across the arms is calculated by interruption of beams, which was analyzed by Maze Tracking Software (M/s. Columbus Instruments, USA). The trial was started by placing an animal on the central platform of the maze facing an open arm. Animals were given a period of 2 min to acclimatize with its surroundings. The time spent in each of the two types of arm was recorded during the next 5 min test period. The percentage open arm time were used as index of anxiety. The apparatus was cleaned thoroughly between trials with damp and dry towels.
Diazepam (1.5 mg/kg) and the Cassia tora leaves extract (100 mg/kg) was orally administered one hour prior to the experiment.

[2] = dose of 0.2 mg/mL; cited from earlier work
[3] = system: aflatoxin B-1-8,9-epoxide formation; details: cited from earlier work

In the case of CC1=CCC(O)(C(C)C)CC1 (stereo not drawn) [4-terpineol], the “IC50 against hydroxyl radicals” value [1] is given as 87.5 mu g/mL.

With CN1C(=O)CN=C(c2ccccc2)c2cc(Cl)ccc21 [Diazepam] the “percentage of time spent in open arms in comparison to saline treated control mice” value (Swiss Albino male mice; extract 100 mg/kg p.o., P<0.01) was “significant increase”, the “% time spent in open arms” value (Swiss Albino male mice; mice, extracts 100 mg/kg p.o.) was 23.38% and the “Time spent in open arms (secs) out of 300 secs” value (Swiss Albino male mice; mice, extracts 100 mg/kg p.o., one hour prior, Mean ± SEM) was 70.16 ± 4.09 s.

In the case of Cc1c(C)c2c(c(C)c1O)CC[C@@](C)(CCC[C@H](C)CCC[C@H](C)CCCC(C)C)O2 [alpha-tocopherol], the “inhibition of peroxidation of linoleic acid” value [2] is given as 82%.

For O=C1c2ccc(O)cc2C(=O)c2ccc(O)cc21 [anthraflavine], the IC50 [3] is listed as 26.9 µM.

For O=C1c2cccc(O)c2C(=O)c2cccc(O)c21 [anthrarufm, anthrarufin], the IC50 [3] is listed as 11.5 µM.

In the case of O=c1c(O)c(-c2ccc(O)c(O)c2)oc2cc(O)cc(O)c12 [quercetin], the “IC50 against hydroxyl radicals” value [1] is given as 8.15 mu g/mL.

In the case of O=C1c2ccccc2C(=O)c2c(O)ccc(O)c21 [quinizarin], the IC50 [3] is listed as 4.12 µM.
